Experimental data taken from the supplement of paper PMC8882468.

Tested on: HCI-025 (organoid from a breast cancer xenograft)
Assay: CTG-3D luminescence at 96 h relative to day-0 seeding control (ratio to day 0); higher = more growth / less cytotoxicity; PDxO 3D drug screen, 96 h, CTG-3D normalised to day-0 seeding control.
Settings: 12.5 pM; days in culture: 172

Compound	CTG-3D luminescence at 96 h
CC(C)(C(=O)NCC(F)(F)C(F)(F)F)C(=O)N[C@@H]1C(=O)Nc2ccccc2-c2ccccc21	2.02
C=CC(=O)N1CCC[C@@H](n2nc(-c3ccc(Oc4ccccc4)cc3)c3c(N)ncnc32)C1 [ibrutinib]	2.25
CNC(=O)c1cccc(-c2ccc3c(N4CCOC[C@@H]4C)nc(N4CCOC[C@@H]4C)nc3n2)c1 [vistusertib]	2.8
CCN(c1cc(C#CCN2CCOCC2)cc(C(=O)NCc2c(C)cc(C)[nH]c2=O)c1C)[C@H]1CC[C@H](N(C)CCOC)CC1	2.86

Same assay, conditions: 12.5 pM; days in culture: 209

Compound	CTG-3D luminescence at 96 h
CC(C)(C(=O)NCC(F)(F)C(F)(F)F)C(=O)N[C@@H]1C(=O)Nc2ccccc2-c2ccccc21	1.5
C=CC(=O)N1CCC[C@@H](n2nc(-c3ccc(Oc4ccccc4)cc3)c3c(N)ncnc32)C1 [ibrutinib]	2.38
CNC(=O)c1cccc(-c2ccc3c(N4CCOC[C@@H]4C)nc(N4CCOC[C@@H]4C)nc3n2)c1 [vistusertib]	1.74
CCN(c1cc(C#CCN2CCOCC2)cc(C(=O)NCc2c(C)cc(C)[nH]c2=O)c1C)[C@H]1CC[C@H](N(C)CCOC)CC1	2.08

Same assay, conditions: 12.5 pM; days in culture: 218

Compound	CTG-3D luminescence at 96 h
CC(C)(C(=O)NCC(F)(F)C(F)(F)F)C(=O)N[C@@H]1C(=O)Nc2ccccc2-c2ccccc21	2.02
C=CC(=O)N1CCC[C@@H](n2nc(-c3ccc(Oc4ccccc4)cc3)c3c(N)ncnc32)C1 [ibrutinib]	1.78
CNC(=O)c1cccc(-c2ccc3c(N4CCOC[C@@H]4C)nc(N4CCOC[C@@H]4C)nc3n2)c1 [vistusertib]	1.49
CCN(c1cc(C#CCN2CCOCC2)cc(C(=O)NCc2c(C)cc(C)[nH]c2=O)c1C)[C@H]1CC[C@H](N(C)CCOC)CC1	1.66

Same assay, conditions: 0.00025 µM; days in culture: 172

Compound	CTG-3D luminescence at 96 h
CC(C)(C(=O)NCC(F)(F)C(F)(F)F)C(=O)N[C@@H]1C(=O)Nc2ccccc2-c2ccccc21	2.24
C=CC(=O)N1CCC[C@@H](n2nc(-c3ccc(Oc4ccccc4)cc3)c3c(N)ncnc32)C1 [ibrutinib]	1.2
CNC(=O)c1cccc(-c2ccc3c(N4CCOC[C@@H]4C)nc(N4CCOC[C@@H]4C)nc3n2)c1 [vistusertib]	1.41
CCN(c1cc(C#CCN2CCOCC2)cc(C(=O)NCc2c(C)cc(C)[nH]c2=O)c1C)[C@H]1CC[C@H](N(C)CCOC)CC1	2.03

Same assay, conditions: 0.00025 µM; days in culture: 209

Compound	CTG-3D luminescence at 96 h
CC(C)(C(=O)NCC(F)(F)C(F)(F)F)C(=O)N[C@@H]1C(=O)Nc2ccccc2-c2ccccc21	1.73
C=CC(=O)N1CCC[C@@H](n2nc(-c3ccc(Oc4ccccc4)cc3)c3c(N)ncnc32)C1 [ibrutinib]	2.13
CNC(=O)c1cccc(-c2ccc3c(N4CCOC[C@@H]4C)nc(N4CCOC[C@@H]4C)nc3n2)c1 [vistusertib]	2.05
CCN(c1cc(C#CCN2CCOCC2)cc(C(=O)NCc2c(C)cc(C)[nH]c2=O)c1C)[C@H]1CC[C@H](N(C)CCOC)CC1	3.04

Same assay, conditions: 0.00025 µM; days in culture: 218

Compound	CTG-3D luminescence at 96 h
CC(C)(C(=O)NCC(F)(F)C(F)(F)F)C(=O)N[C@@H]1C(=O)Nc2ccccc2-c2ccccc21	1.91
C=CC(=O)N1CCC[C@@H](n2nc(-c3ccc(Oc4ccccc4)cc3)c3c(N)ncnc32)C1 [ibrutinib]	2.33
CNC(=O)c1cccc(-c2ccc3c(N4CCOC[C@@H]4C)nc(N4CCOC[C@@H]4C)nc3n2)c1 [vistusertib]	1.78
CCN(c1cc(C#CCN2CCOCC2)cc(C(=O)NCc2c(C)cc(C)[nH]c2=O)c1C)[C@H]1CC[C@H](N(C)CCOC)CC1	1.66

Same assay, conditions: 0.005 µM; days in culture: 172

Compound	CTG-3D luminescence at 96 h
CC(C)(C(=O)NCC(F)(F)C(F)(F)F)C(=O)N[C@@H]1C(=O)Nc2ccccc2-c2ccccc21	3.81
C=CC(=O)N1CCC[C@@H](n2nc(-c3ccc(Oc4ccccc4)cc3)c3c(N)ncnc32)C1 [ibrutinib]	2.79
CNC(=O)c1cccc(-c2ccc3c(N4CCOC[C@@H]4C)nc(N4CCOC[C@@H]4C)nc3n2)c1 [vistusertib]	1.7
CCN(c1cc(C#CCN2CCOCC2)cc(C(=O)NCc2c(C)cc(C)[nH]c2=O)c1C)[C@H]1CC[C@H](N(C)CCOC)CC1	3.74

Same assay, conditions: 0.005 µM; days in culture: 209

Compound	CTG-3D luminescence at 96 h
CC(C)(C(=O)NCC(F)(F)C(F)(F)F)C(=O)N[C@@H]1C(=O)Nc2ccccc2-c2ccccc21	1.93
C=CC(=O)N1CCC[C@@H](n2nc(-c3ccc(Oc4ccccc4)cc3)c3c(N)ncnc32)C1 [ibrutinib]	2.26
CNC(=O)c1cccc(-c2ccc3c(N4CCOC[C@@H]4C)nc(N4CCOC[C@@H]4C)nc3n2)c1 [vistusertib]	2.28
CCN(c1cc(C#CCN2CCOCC2)cc(C(=O)NCc2c(C)cc(C)[nH]c2=O)c1C)[C@H]1CC[C@H](N(C)CCOC)CC1	2.37
